Laboratory results: ChEMBL document CHEMBL1201862, “PubChem BioAssay data set” (2004)
Active and inactive are the calls of the source.

Legend:
Paired box protein Pax-8 = Paired box protein Pax-8 (Homo sapiens, UniProt Q06710); test: inhibitors of PAX8-driven TPO luciferase reporter, dose response, RMG-I cells, cherry-pick (AID 687027); type: functional, cell-based;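 note: luciferase reporter driven by Pax8 target thyroperoxidase promoter measured by SteadyGlo luminescence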
[1] = target: Cyclin-dependent kinase 5/CDK5 activator 1 (Homo sapiens, UniProt Q00535); test: CDK5/p35 kinase inhibitors, dose response, biochemical, cherry-picked samples, set 2 (AID 504545)
[2] = target: Luciferin 4-monooxygenase (Photinus pyralis, UniProt P08659); test: firefly luciferase enzyme inhibitors, dose response, biochemical, luminescence (AID 1891)
[3] = target: T1, Neuropeptide Y receptor type 2 (Homo sapiens, UniProt P49146); type: functional, cell-based;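 note: HEK293 cells expressing the receptor and a CNG channel; stimulus was NPY near EC95 followed by isoproterenol to raise cAMP; antagonist potency measured as restoring cAMP signal that NPY suppresses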
T1 sequence (P49146 whole entry): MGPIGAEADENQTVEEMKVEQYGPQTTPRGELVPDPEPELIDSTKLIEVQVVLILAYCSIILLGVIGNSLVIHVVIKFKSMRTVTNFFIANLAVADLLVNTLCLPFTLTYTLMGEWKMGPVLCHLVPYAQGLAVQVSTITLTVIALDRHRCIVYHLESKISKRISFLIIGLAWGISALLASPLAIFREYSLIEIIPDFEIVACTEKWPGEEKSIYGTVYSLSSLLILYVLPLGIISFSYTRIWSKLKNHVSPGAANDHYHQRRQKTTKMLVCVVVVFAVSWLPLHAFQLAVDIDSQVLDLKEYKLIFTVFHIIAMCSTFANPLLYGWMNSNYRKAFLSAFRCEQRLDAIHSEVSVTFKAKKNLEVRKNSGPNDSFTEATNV

[4] = target: T2, Neuropeptide Y receptor type 1 (Homo sapiens, UniProt P25929); type: functional;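 note: HEK293 cells with a CNG channel challenged with NPY then isoproterenol; potency as antagonist that reverses NPY suppression of cAMP signal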
T2 sequence (P25929 whole entry): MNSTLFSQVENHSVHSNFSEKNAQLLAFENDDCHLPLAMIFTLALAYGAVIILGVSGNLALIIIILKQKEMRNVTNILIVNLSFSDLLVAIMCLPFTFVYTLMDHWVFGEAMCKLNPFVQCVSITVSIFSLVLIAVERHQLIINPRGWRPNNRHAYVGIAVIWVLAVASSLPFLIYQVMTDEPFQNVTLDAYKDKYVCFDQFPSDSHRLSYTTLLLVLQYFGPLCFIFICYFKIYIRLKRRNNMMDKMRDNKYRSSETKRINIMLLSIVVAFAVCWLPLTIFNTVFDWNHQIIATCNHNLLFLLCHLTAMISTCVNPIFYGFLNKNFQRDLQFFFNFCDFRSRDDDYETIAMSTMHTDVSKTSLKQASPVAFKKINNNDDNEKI

[5] = target: SWI/SNF-related matrix-associated actin-dependent regulator of chromatin subfamily A member 2 (Homo sapiens, UniProt P51531); test: Luminescence-based cell-based high throughput dose response assay to identify activators of the function of SWI/SNF related, matrix associated, actin dependent regulator of chromatin, subfamily a, member 2 (SMARCA2, BRM).; type: functional
[6] = Counterscreen for activators of the function of SWI/SNF related, matrix associated, actin dependent regulator of chromatin, subfamily a, member 2 (SMARCA2, BRM): Luminescence-based cell-based high throughput dose response assay to identify non-selective compounds using the VP16 reporter assay.; type: functional
[7] = target: Photoreceptor-specific nuclear receptor (Homo sapiens, UniProt Q9Y5X4); test: NR2E3 inverse agonists, dose response, biochemical, TR-FRET (AID 463256); type: functional
[8] = target: Peroxisome proliferator-activated receptor gamma/Nuclear receptor corepressor 2 (Homo sapiens, UniProt P37231+Q9Y618); test: Counterscreen for NR2E3 inverse agonists: TR-FRET-based biochemical high throughput dose response assay to identify inverse agonists of the interaction between peroxisome proliferator-activated receptor gamma (PPARg) and nuclear receptor co-repressor 2 (NCOR2).; type: functional
[9] = inhibitors of firefly luciferase expression or activity, dose response, H4 neuroglioma cells, luminescence (AID 1990); type: functional, cell-based
[10] = inhibitors of SNCA 5'UTR-driven reporter translation, confirmation, H4 neuroglioma cells, luminescence (AID 1988); type: functional, cell-based
[11] = Luminescence Cell-Based Dose Response HTS to Identify Inhibitors of 5'UTR Stem-Loop Driven Prion Protein mRNA Translation in H4 Neuroglioblastoma Cells. [Related pubchem assays: 1827 (Project Summary), 1813 (Primary HTS)]; type: functional
[12] = target: T3, Replicative DNA helicase DnaB (Mycobacterium tuberculosis, UniProt P9WMR3); test: DnaB intein splicing inhibitors, dose response, biochemical, cell-free fluorescence (AID 449749); type: functional
T3 sequence (P9WMR3 whole entry): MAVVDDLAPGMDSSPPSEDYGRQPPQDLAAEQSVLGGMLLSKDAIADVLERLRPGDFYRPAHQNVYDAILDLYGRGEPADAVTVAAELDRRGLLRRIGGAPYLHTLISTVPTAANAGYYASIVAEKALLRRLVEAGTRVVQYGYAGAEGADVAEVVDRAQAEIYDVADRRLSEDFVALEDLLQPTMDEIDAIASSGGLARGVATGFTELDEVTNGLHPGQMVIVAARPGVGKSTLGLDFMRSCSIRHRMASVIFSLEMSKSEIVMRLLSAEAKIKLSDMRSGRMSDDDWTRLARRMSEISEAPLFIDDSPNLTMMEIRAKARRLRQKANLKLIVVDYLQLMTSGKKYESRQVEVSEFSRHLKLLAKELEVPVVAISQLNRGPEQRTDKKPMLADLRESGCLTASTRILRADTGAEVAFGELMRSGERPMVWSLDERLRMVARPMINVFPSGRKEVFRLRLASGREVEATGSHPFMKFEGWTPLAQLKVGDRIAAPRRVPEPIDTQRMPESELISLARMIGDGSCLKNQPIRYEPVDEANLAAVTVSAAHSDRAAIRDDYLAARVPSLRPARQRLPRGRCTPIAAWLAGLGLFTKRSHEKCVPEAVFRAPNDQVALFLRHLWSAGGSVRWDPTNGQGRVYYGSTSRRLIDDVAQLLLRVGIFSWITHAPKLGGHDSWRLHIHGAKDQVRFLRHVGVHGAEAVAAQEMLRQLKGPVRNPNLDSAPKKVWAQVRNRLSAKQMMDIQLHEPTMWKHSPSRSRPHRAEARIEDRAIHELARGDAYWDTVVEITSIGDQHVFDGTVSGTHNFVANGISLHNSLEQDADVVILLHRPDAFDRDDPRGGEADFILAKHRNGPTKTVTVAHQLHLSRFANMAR

Protein RecA = target: T4, Protein RecA (Mycobacterium tuberculosis, UniProt P9WHJ3); test: Fluorescence Cell-Free Homogeneous Dose Retest to Identify Inhibitors of RecA-Intein Splicing Activity. [Related pubchem assays (depositor defined):AID2097, AID2223, AID489010, AID492950]; type: functional
T4 sequence (P9WHJ3 whole entry): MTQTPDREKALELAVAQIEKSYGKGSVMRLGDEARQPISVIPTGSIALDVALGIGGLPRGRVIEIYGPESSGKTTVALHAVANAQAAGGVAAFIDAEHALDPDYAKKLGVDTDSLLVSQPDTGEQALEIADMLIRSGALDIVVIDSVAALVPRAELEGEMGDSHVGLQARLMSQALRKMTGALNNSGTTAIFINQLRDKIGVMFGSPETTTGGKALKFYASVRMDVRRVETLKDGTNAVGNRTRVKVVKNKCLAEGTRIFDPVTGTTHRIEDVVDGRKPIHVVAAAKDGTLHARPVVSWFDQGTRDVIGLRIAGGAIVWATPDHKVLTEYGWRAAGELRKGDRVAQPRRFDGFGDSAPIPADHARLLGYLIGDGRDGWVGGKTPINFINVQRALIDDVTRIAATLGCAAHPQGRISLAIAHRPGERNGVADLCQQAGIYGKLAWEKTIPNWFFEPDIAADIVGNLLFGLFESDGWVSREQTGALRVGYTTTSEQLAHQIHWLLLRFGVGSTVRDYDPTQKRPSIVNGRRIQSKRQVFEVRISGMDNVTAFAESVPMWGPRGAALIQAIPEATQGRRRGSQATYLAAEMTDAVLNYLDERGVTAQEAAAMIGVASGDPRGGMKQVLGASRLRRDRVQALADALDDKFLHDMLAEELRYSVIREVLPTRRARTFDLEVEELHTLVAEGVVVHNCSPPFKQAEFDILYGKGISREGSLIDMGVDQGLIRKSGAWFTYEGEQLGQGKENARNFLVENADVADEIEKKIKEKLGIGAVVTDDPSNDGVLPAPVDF

CAAX prenyl protease 2 = target: T5, CAAX prenyl protease 2 (Saccharomyces cerevisiae S288c, UniProt Q03530); type: biochemical
T5 sequence (Q03530 whole entry): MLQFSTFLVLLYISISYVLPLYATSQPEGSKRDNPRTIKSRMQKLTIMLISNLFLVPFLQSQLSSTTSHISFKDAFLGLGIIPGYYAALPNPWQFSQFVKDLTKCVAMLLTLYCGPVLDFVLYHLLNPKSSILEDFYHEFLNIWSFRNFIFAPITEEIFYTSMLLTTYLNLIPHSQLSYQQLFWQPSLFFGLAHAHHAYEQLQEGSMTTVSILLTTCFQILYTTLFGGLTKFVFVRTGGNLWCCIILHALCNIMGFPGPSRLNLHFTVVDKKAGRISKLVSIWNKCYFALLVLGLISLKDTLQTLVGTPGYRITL

[13] = NIH:OVCAR-3 ovarian cancer cell cytotoxicity, dose response, PAX8 inhibitor project, plate reader, dry powder samples (AID 743044); type: functional, cell-based
[14] = cytotoxicity in OVCAR8 ovarian cancer cells, dose response, PAX8 project, cell-based, plate reader, dry powder samples (AID 743197); type: functional; details: OVCAR-8
[15] = P. falciparum 3D7-ScDHODH growth inhibitors, dose response, SYBR Green, dry powder samples (AID 1159570); type: functional, cell-based;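 note: parasite growth measured after 72 hours of compound exposure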
[16] = HepG2 cell cytotoxicity, dose response, cytotoxicity control, plate reader, dry powder samples (AID 1159569); type: functional, cell-based;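 note: inhibitor potency with signal falling toward the positive control level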
[17] = P. falciparum Dd2 growth inhibitors, dose response, SYBR Green, dry powder samples (AID 1159566); type: functional, cell-based;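 note: potency for growth inhibition with lower SYBR green DNA signal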
[18] = P. falciparum ATP4 D1247Y mutant growth inhibitors, dose response, NITD609-resistant line, SYBR Green, dry powder (AID 1159571); type: functional, cell-based;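 note: parasites synchronized at ring stage by sorbitol before testing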
[19] = P. falciparum Dd2 growth inhibitors, dose response, SYBR Green, cherry-picked samples (AID 1159567); type: functional, cell-based

Sequence of Peroxisome proliferator-activated receptor gamma/Nuclear receptor corepressor 2 (P37231 whole entry): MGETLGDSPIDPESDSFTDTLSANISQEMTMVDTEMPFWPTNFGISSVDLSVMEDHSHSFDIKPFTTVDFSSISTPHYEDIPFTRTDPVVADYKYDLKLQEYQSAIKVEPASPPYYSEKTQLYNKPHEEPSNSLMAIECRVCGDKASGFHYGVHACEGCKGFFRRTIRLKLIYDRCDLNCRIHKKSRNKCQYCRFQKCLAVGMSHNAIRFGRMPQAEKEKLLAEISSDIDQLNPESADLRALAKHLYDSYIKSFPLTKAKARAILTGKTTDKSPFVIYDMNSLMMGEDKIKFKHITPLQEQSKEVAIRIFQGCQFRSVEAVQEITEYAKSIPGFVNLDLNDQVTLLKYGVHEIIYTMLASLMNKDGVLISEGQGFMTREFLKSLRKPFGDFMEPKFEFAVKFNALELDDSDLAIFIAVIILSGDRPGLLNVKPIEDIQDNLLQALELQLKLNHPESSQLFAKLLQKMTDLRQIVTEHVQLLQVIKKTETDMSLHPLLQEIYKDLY
Sequence of Peroxisome proliferator-activated receptor gamma/Nuclear receptor corepressor 2 (Q9Y618 whole entry): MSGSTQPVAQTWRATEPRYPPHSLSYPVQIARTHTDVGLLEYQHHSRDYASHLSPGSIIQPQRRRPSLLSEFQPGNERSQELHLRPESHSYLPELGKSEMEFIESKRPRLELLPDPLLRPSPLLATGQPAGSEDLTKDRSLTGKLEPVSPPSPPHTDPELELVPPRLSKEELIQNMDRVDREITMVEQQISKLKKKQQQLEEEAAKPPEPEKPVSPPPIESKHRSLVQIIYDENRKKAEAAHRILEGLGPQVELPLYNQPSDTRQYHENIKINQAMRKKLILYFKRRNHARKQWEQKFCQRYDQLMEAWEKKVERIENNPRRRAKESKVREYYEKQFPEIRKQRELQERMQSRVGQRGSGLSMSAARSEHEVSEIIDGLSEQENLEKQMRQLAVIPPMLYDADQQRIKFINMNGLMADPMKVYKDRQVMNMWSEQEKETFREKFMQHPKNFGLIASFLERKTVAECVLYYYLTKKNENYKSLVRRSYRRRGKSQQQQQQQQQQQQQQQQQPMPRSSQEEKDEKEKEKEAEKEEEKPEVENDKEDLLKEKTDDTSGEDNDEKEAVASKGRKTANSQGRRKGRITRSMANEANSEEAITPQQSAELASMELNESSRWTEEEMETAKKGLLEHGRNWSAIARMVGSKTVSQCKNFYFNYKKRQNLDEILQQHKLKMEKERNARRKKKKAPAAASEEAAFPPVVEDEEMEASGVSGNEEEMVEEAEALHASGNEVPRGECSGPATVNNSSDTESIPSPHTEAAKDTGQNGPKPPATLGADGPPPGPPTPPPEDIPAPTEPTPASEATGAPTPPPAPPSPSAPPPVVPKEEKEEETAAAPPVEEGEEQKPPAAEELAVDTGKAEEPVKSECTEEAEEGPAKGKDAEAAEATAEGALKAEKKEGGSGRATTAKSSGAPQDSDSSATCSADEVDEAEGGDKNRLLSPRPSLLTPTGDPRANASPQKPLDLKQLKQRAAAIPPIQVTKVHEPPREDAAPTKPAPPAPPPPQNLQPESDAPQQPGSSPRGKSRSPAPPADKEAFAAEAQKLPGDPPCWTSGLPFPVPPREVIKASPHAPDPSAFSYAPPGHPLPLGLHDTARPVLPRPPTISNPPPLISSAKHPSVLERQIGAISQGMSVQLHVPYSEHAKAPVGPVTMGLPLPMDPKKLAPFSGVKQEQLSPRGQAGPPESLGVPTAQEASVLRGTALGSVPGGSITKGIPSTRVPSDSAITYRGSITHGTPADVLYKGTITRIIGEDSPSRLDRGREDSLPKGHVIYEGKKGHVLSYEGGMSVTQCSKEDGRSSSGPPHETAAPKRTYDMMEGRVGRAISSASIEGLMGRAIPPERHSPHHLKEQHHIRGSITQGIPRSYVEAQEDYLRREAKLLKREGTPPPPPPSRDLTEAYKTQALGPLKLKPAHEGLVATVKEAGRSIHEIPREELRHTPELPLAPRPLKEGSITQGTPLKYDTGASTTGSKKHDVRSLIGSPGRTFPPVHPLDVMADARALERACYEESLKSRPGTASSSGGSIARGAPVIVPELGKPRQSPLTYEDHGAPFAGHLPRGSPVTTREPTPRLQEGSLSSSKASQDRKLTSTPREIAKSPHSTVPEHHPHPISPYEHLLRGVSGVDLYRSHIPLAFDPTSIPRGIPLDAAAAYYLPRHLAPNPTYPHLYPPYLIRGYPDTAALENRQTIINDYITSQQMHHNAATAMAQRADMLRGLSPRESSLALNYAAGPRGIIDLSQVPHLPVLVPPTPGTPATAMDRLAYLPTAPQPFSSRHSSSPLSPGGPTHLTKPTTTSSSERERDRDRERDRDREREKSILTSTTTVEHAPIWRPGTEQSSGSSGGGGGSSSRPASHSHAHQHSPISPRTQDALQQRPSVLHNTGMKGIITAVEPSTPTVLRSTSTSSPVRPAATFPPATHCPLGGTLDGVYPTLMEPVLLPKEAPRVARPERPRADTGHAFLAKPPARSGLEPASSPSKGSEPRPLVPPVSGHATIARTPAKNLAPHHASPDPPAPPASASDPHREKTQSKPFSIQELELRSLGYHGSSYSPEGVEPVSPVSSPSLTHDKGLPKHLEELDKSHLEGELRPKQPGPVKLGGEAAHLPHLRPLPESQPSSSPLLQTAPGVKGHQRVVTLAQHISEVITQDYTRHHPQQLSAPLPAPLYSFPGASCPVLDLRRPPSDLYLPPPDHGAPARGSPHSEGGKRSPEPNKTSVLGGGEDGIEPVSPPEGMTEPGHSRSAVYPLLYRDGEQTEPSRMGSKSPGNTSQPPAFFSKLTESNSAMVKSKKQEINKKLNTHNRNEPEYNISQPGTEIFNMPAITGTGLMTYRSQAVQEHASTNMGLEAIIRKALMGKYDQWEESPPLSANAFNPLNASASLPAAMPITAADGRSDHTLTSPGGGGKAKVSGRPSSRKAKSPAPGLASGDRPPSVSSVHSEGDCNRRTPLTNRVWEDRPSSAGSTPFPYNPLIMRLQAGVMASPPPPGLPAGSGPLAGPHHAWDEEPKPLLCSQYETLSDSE
Sequence of Cyclin-dependent kinase 5/CDK5 activator 1 (Q00535 whole entry): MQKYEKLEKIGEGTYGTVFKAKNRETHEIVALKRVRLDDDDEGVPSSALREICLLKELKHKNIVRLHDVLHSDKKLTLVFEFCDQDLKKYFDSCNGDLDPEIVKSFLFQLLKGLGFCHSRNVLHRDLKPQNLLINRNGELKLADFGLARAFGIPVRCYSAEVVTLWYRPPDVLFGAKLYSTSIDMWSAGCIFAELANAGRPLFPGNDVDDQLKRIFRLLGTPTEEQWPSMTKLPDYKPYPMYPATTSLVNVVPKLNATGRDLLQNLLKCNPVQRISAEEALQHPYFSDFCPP
Sequence of Cyclin-dependent kinase 5/CDK5 activator 1 (Q15078 whole entry, further chain): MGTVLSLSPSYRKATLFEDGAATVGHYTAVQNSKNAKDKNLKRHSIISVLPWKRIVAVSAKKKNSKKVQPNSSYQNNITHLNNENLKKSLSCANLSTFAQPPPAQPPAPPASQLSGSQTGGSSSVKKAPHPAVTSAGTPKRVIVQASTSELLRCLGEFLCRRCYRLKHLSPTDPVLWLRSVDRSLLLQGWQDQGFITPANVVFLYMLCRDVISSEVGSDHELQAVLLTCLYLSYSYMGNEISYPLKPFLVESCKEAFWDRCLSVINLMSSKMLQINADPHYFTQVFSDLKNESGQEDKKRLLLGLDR
Sequence of Paired box protein Pax-8 (Q06710 whole entry): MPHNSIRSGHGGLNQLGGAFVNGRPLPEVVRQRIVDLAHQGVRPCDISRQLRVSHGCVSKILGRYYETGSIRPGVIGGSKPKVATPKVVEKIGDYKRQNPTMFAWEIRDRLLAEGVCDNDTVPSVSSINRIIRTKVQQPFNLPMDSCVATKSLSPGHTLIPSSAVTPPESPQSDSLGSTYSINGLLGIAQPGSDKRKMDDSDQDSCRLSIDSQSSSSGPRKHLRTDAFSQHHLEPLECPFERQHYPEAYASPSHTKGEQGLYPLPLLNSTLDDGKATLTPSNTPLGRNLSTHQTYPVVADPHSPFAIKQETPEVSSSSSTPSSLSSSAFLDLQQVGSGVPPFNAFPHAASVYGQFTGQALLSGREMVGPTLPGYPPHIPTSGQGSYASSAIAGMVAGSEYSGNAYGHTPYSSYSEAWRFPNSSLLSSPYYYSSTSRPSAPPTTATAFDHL
Sequence of Photoreceptor-specific nuclear receptor (Q9Y5X4 whole entry): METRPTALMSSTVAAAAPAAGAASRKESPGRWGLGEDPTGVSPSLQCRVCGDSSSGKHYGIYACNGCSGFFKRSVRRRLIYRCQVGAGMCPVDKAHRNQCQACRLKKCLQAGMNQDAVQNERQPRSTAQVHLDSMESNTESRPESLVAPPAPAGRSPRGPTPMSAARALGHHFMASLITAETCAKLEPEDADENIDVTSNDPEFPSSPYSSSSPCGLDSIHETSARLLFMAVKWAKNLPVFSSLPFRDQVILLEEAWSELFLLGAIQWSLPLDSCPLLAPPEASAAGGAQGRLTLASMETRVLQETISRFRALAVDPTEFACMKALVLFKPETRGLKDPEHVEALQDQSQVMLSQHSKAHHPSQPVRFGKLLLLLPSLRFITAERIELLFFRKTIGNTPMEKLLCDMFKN
Sequence of Luciferin 4-monooxygenase (P08659 whole entry): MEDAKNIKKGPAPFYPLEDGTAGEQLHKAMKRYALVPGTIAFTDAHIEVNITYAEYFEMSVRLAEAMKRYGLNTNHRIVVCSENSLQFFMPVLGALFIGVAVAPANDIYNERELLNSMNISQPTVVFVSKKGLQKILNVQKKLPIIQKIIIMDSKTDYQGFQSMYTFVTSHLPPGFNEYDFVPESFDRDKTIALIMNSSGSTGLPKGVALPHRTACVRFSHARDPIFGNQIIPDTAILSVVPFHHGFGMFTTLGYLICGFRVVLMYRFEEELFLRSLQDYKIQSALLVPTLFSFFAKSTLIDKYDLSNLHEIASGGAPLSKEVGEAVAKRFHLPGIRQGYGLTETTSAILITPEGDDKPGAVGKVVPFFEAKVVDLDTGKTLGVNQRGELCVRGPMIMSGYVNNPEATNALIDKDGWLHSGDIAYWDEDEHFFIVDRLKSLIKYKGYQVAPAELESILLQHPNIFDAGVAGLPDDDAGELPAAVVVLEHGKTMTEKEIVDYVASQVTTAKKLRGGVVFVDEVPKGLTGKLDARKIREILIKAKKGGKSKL

COc1ccc(C(=O)ON=C(N)c2ccccn2)cc1
AC50 (Paired box protein Pax-8): 8.88 µM (active) | AC50 [1]: 12.6 µM (active) | EC50 [2]: 1.47 µM (active)

CC(C)OC(=O)/C(=C/c1ccc2c(c1)c1ccccc1n2C)NC(=O)c1ccccc1
IC50 [3]: 14.7 µM (not active) | IC50 [4]: 19.1 µM (not active)

Cc1ccsc1C(=O)OCC(=O)NCCC1=CCCCC1
EC50 [5]: > 91.1 µM (inactive) | EC50 [6]: > 91.1 µM (inactive)

Cc1cccc(-n2ccnc2SCC(=O)N2CCCc3ccccc32)c1C
IC50 [3]: 1.56 µM (active) | IC50 [4]: 4.08 µM (active)

CCn1cnc2sc(C(=O)Nc3ccccc3OC)c(C)c2c1=O
IC50 [7]: 7.11 µM (active) | IC50 [8]: 4.9 µM (active)

Cc1ccc2nc(-c3cc(-c4ccccc4)no3)cn2c1
EC50 [9]: 7.48 µM (inconclusive) | IC50 [7]: > 39.8 µM (not active) | EC50 [10]: 3.08 µM (active) | EC50 [11]: 3.61 µM (active) | IC50 [8]: > 39.8 µM (not active)

COc1ccc(-c2cc(C#N)nc(Cl)n2)cc1
AC50 [12]: 79.8 µM (active) | EC50 [5]: > 91.2 µM (inactive) | EC50 [6]: > 91.2 µM (inactive) | EC50 (Protein RecA): 37.2 µM (active)

Oc1ccc(-c2nc3ccccn3c2NCc2ccc3c(c2)OCO3)cc1
AC50 (CAAX prenyl protease 2): 27.7 µM (active)

O=C(CCc1nc(-c2ccccc2)c(-c2ccccc2)o1)OCc1ccc(Br)cc1
IC50 [3]: 15.1 µM (not active) | IC50 [4]: 8.36 µM (active)

O=C(Nc1cccc(-n2cnnn2)c1)c1cc2ccccc2o1
IC50 [7]: 6.55 µM (active) | IC50 [8]: 5.91 µM (active)

CN1CCN(C(=O)c2ccc3c(c2)NC(=O)/C(=C/c2ccccc2)S3)CC1
AC50 [1]: 29.7 µM (active)

CCOC(=O)c1cc2c(O)nccc2nc1C
AC50 (CAAX prenyl protease 2): 10.3 µM (active)

Cc1nn(-c2ncccn2)c2c1C(=O)CC(C)(C)C2Br (stereo unspecified)
AC50 [1]: 69.7 µM (active)

Cc1ccccc1-c1ccc2c(c1)O[C@H](CN(C)C(=O)Nc1ccc(C(F)(F)F)cc1)[C@@H](C)CN([C@H](C)CO)S2(=O)=O
AC50 [13]: 41.1 µM (active) | AC50 [14]: > 70 µM (inactive) | AC50 (Paired box protein Pax-8): 8 µM (active)

C[C@@H]1CCCCO[C@H](CN(C)Cc2ccc(C(F)(F)F)cc2)[C@H](C)CN([C@@H](C)CO)C(=O)c2cc(NS(=O)(=O)c3ccc(Cl)cc3)ccc2O1
AC50 [13]: 16.4 µM (active) | AC50 [14]: > 70 µM (inactive) | AC50 (Paired box protein Pax-8): 5.9 µM (active)

Cc1ccc(S(=O)(=O)N(C)C[C@H]2OCCCC[C@H](C)Oc3ccc(NS(=O)(=O)c4ccc(Cl)cc4)cc3C(=O)N([C@@H](C)CO)C[C@@H]2C)cc1
AC50 [14]: > 70 µM (inactive) | AC50 (Paired box protein Pax-8): 6.7 µM (active)

COc1ccc2c3c([nH]c2c1)[C@@H](CO)N(Cc1cccc(F)c1)CC31CCN(Cc2ccccn2)CC1
AC50 [15]: 1.32 µM (active) | AC50 [16]: 48.6 µM (active) | AC50 [17]: 1.52 µM (active) | AC50 [18]: 1.1 µM (active) | AC50 [19]: 1.21 µM (active)

COc1ccc(S(=O)(=O)N(C)C[C@H]2Oc3c(NC(=O)Nc4cccc5ccccc45)cccc3C(=O)N([C@@H](C)CO)C[C@H]2C)cc1
AC50 [15]: 0.3 µM (active) | AC50 [16]: > 100 µM (inactive) | AC50 [17]: 0.327 µM (active) | AC50 [18]: 0.277 µM (active) | AC50 [19]: 0.489 µM (active)

COc1cccc(NC(=O)N2[C@@H](CO)[C@@H](c3ccccc3)[C@@H]2CNCC(C)C)c1
AC50 [15]: 1.08 µM (active) | AC50 [16]: 67.9 µM (active) | AC50 [17]: 1.05 µM (active) | AC50 [18]: 1.4 µM (active) | AC50 [19]: 1.78 µM (active)
